Experimental data: patent publication US20190226949A1, “IRIDIUM COMPLEXES FOR CELLULAR IMAGING” (UNIVERSITY OF SOUTH AUSTRALIA, priority 2016, published 2019)
Several values for one entry are separate records, joined by “and”; a condition that tells them apart may be missing. Equal values may be shown once.

Experiments:
[1] = Lipophilicity by shake-flask method (7.4-buffered PBS / n-octanol); type: physicochemical; conditions: 7.4-buffered PBS solution and n-octanol
Protocol: The lipophilicity of the iridium complexes was measured by the shake-flask method using 7.4-buffered PBS and n-octanol as solvents (Table 2). The values range between 1.49 and 2.68 are typical for cyclometalated iridium complexes that have not been bioconjugated. […] In general, neutral complexes have log D7.4 values above 2.00 and there is an increased in lipophilicity of extending the tetrazolato ligand with the addition of a phenyl spacer in [Ir(ppy)2(TzPyPhCN)], or by extending the conjugation on passing from pyridine to quinoline or isoquinoline for [Ir(ppy)2(TzQn)] and [Ir(ppy)2(TziQn)]. Methylation in all cases reduces lipophilicity to log D7.4 values […], with the same trend within the family of methylated complexes as previously observed for the neutral ones.

[2] = Photophysical measurements (absorption, emission, lifetime, quantum yield) in diluted solutions; type: physicochemical; conditions: for Emission λem / τaer, excited state lifetime (relative weight in parentheses) / τdeaer, excited state lifetime (relative weight in parentheses): 298K; for Φaer, quantum yield / Φdeaer, quantum yield: versus Ru(bpy)3^2+ in water (φr = 0.028); for τdeaer, excited state lifetime (relative weight in parentheses) / Φdeaer, quantum yield: deaerated; for knr: calculated as [(1 − φ)/τ] from deaerated solutions; for kr: calculated as [φ/τ] from deaerated solutions; for Φ, quantum yield: versus Ru(bpy)3^2+ in water
From the text: A summary of the photophysical data for the complexes as diluted solutions (10^−5 M) in dichloromethane, water, PBS, lysosomal fluid solution, and ethyl laurate is reported in Table 1. All the listed aqueous media also contain 0.1% DMSO to favour the solubilisation of the complexes. The various solvents have been chosen to identify potential modulations on the photophysical behaviour of the iridium complexes in diverse cellular environments such as cytoplasm, endosome/lysosomes acidic organelles, or lipid-rich compartments like membranes, endoplasmic reticulum, and lipid droplets. In general, the photophysical characteristics were measured in aerated solutions to take into account the presence of oxygen in live cells. On the other hand, dichloromethane solutions were compared as aerated and degassed to confirm oxygen sensitivity and triplet character of the excited states of the complexes.
Absorption spectra were recorded at room temperature using a Cary 4000 UV/Vis spectrometer. Uncorrected steady state emission and excitation spectra were recorded on an Edinburgh FLSP980-S2S2-stm spectrometer equipped with: i) a temperature-monitored cuvette holder; ii) 450 W Xenon arc lamp; iii) double excitation and emission monochromators; iv) a Peltier cooled Hamamatsu R928P photomultiplier tube (spectral range 200-870 nm). Emission and excitation spectra were corrected for source intensity (lamp and grating) and emission spectral response (detector and grating) by a calibration curve supplied with the instrument. According to the approach described by Demas and Crosby, luminescence quantum yields (Φem) were measured in optically dilute solutions (O.D.<0.1 at excitation wavelength) obtained from absorption spectra on a wavelength scale [nm] and compared to the reference emitter by the following equation: […]
where A is the absorbance at the excitation wavelength (λ), I is the intensity of the excitation light at the excitation wavelength (λ), n is the refractive index of the solvent, D is the integrated intensity of the luminescence and Φ is the quantum yield. The subscripts r and x refer to the reference and the sample, respectively. The quantum yield determinations were performed at identical excitation wavelength for the sample and the reference, therefore cancelling the I(λr)/I(λx) term in the equation. The quantum yields of complexes were measured against Rubipy in water (Φr=0.028). Emission lifetimes (z) were determined with the time correlated single photon counting technique (TCSPC) with the same Edinburgh FLSP980-S2S2-stm spectrometer using either a pulsed picosecond LED (EPLED/EPL 377 nm, FHWM<800 ps) or a microsecond flashlamp. The goodness of fit was assessed by minimising the reduced χ^2 function and by visual inspection of the weighted residuals. The solvents used for the preparation of the solutions for the photophysical investigations were of LR grade and the water was deionised. Degassing of the dichlorometane solutions was performed using the freeze-pump-thaw method. Experimental uncertainties are estimated to be ±8% for lifetime determinations, ±20% for quantum yields, ±2 nm and ±5 nm for absorption and emission peaks, respectively.

[3] = tested on: H9c2 rat cardiomyoblast cells; assay: Staining and co-staining of live H9c2 cells, confocal and two-photon microscopy; type: cell-based; conditions: live H9c2, 20 μM, 30 minutes
Protocol: Live H9c2 rat cardiomyoblasts were incubated with the iridium complexes for 30 minutes. Complexes were made to a final concentration of 20 μM in the cell culture medium with DMSO concentration <0.2%. Under these conditions, the luminescence from the iridium complexes within the cells was detected via confocal microscopy under single-photon excitation (403 nm) or two-photon excitation (810-840 nm).
To determine the localisation of the iridium complexes, co-staining experiments were carried out with the use of ER-Tracker™ Red (endoplasmic reticulum), LysoTracker® Red DND-99 (acidic compartments), MitoTracker® Red (mitochondria), BODIPY® 500/510 C1, C12(fatty acid) or β-BODIPY® FL HPC (phospholipids). […] This difference was also in agreement with the trend of the quantum yield data illustrated before and detection of internalised complex by ICP-MS.
H9c2 rat cardiomyoblast cell line was a kind gift from Professor Janna Morrison (University of South Australia). The H9c2 cells were maintained in high-glucose (4500 mg/L) DMEM medium (Sigma-Aldrich, USA) containing 10% fetal bovine serum (FBS; In Vitro Technologies, USA) and 2 mM L-glutamine (Sigma-Aldrich, USA) at 37° C. and 5% CO2. The H9c2 cells were cultured in […] flasks, and cells (1×10^6 cells/mL) that had been passaged, from two up to five times were used for experiments. For live cell imaging and MTS assay, the H9c2 cells (1×10^5 cells/mL) were cultured overnight in either ibidi μ-Slide 8 wells in a final volume of 250 μL or 96-well microtiter plate in a final volume of 200 μL in absence of Ir-based molecular probes.
The H9c2 cells were incubated with 20 μM of Ir-based molecular probes for 30 minutes in FBS-free media (300 μL) at 37° C. and 5% CO2. These cells were washed twice with phosphate buffered saline (PBS) and once with FBS-free media, and then co-stained with either ER-Tracker™ Red (BODIPY® TR Glibenclamide), LysoTracker® Red DND-99, MitoTracker® Red CMXRos (1H,5H,11H,15H-Xantheno[2,3,4-ij:5,6,7-i′j′]diquinolizin-18-ium, 9-[4-(chloromethyl)phenyl]-2,3,6,7,12,13,16,17-octahydro-, chloride), β-BODIPY® FL C5-HPC (2-(4,4-Difluoro-5,7-Dimethyl-4-Bora-3a,4a-Diaza-s-Indacene-3-Pentanoyl)-1-Hexadecanoyl-sn-Glycero-3-Phosphocholine) or BODIPY® 500/510 C1, C12 (4,4-Difluoro-5-Methyl-4-Bora-3a,4a-Diaza-s-Indacene-3-Dodecanoic Acid), which were obtained from Life Technologies Australia Pty Ltd, Australia. Cell biology analysis was carried out with a minimum of two experimental groups. Imaging analysis was performed using a Nikon A1+ confocal microscope equipped with 403 nm, 488 nm, 561 nm and 640 nm solid-state lasers (Nikon, Japan) and OKOLab Microscope Incubator (Okolab USA Inc., USA). The final preparation of the images was conducted with Adobe Photoshop CC (Adobe Systems Inc., USA).
The H9c2 cells were incubated with 20 μM of Ir-based molecular probes for 30 minutes in FBS-free media (300 μL) at 37° C. and 5% CO2. These cells then were washed with phosphate buffered saline (PBS) and imaged using Zeiss LSM710 META NLO inverted microscope supplemented with a two-photon Mai-Tai®, tunable Ti:Sapphire femtosecond pulse laser (710-920 nm, Spectra-Physics). Fluorescence of Ir-based molecular probes was detected using the following settings: two-photon excitation wavelength 830 nm, beam splitter MBS 690+, emission interval 520-650 nm. The H9c2 cells were exposed to two-photon illumination between 810-840 nm. A continuum of lambda stack images was captured across the emission spectrum 416-728 nm. The images were acquired using a Plan-APOCHROMAT 63X/NA1.4 oil immersion objective. The final preparation of the images was conducted with Adobe Photoshop CC (Adobe Systems Inc., USA).

Compound	logD7.4, distribution coefficient [1]	Emission λem ([2]; DCM, 10^−5 M)	τaer, excited state lifetime (relative weight in parentheses) ([2]; DCM, aerated) [ns]	Φaer, quantum yield ([2]; DCM, aerated)	τdeaer, excited state lifetime (relative weight in parentheses) ([2]; DCM) [ns]	Φdeaer, quantum yield ([2]; DCM)	knr ([2]; DCM)	kr ([2]; DCM)	Absorption λabs [nm] (10^4ε [M^−1cm^−1]) ([2]; H2O with 0.1% DMSO, 10^−5 M)	Emission λem ([2]; H2O with 0.1% DMSO, aerated) [nm]	Φ, quantum yield ([2]; H2O with 0.1% DMSO, aerated)	Absorption λabs [nm] (10^4ε [M^−1cm^−1]) ([2]; DCM, 10^−5 M)	emission detected from stained cells [3]	emission in the various solvents ([2]; dichloromethane, water, PBS, lysosomal fluid, ethyl laurate)
N#Cc1ccc2[n+](c1)[Ir]13([c]4cc(F)cc(F)c4-c4cccc[n+]41)([c]1cc(F)cc(F)c1-c1cccc[n+]13)[n]1nnnc1-2 [[Ir(F2ppy)2(TzPyCN)]]	2.01 ± 0.05	542 nm	140	0.042	697	0.406	0.852 10^6s^−1	5.825 10^5s^−1	256 (4.83) nm (10^4ε [M^−1cm^−1]) and 302 (3.36) nm (10^4ε [M^−1cm^−1]) and 366 (1.16) nm (10^4ε [M^−1cm^−1])	552	0.057	–	–	–
c1cc[c]2c(c1)-c1cccc[n+]1[Ir]213([c]2ccccc2-c2cccc[n+]21)[n]1nnnc1-c1ccc2ccccc2[n+]13 [[Ir(ppy)2(TzQn)]]	2.23 ± 0.04	580 nm	153	0.021	831	0.065	1.125 10^6s^−1	0.782 10^5s^−1	266 (4.41) nm (10^4ε [M^−1cm^−1]) and 350 (2.35) nm (10^4ε [M^−1cm^−1]) and 425 (0.97) nm (10^4ε [M^−1cm^−1])	600	0.039	263 (8.44) nm (10^4ε [M^−1cm^−1]) and 345 (1.97) nm (10^4ε [M^−1cm^−1]) and 428 (0.42) nm (10^4ε [M^−1cm^−1])	–	–
c1cc[c]2c(c1)-c1cccc[n+]1[Ir]213([c]2ccccc2-c2cccc[n+]21)[n]1nnnc1-c1c2ccccc2cc[n+]13 [[Ir(ppy)2(TziQn)]]	2.57 ± 0.05	535, nm and 575 nm and 620 nm	497	0.036	6713	0.144	0.128 10^6s^−1	0.214 10^5s^−1	268 (3.42) nm (10^4ε [M^−1cm^−1]) and 350 (2.00) nm (10^4ε [M^−1cm^−1]) and 435 (0.80) nm (10^4ε [M^−1cm^−1])	590	0.018	260 (9.77) nm (10^4ε [M^−1cm^−1]) and 340 (3.13) nm (10^4ε [M^−1cm^−1]) and 424 (0.75) nm (10^4ε [M^−1cm^−1])	–	–
C[n+]1nc2[n](n1)[Ir]13([c]4ccccc4-c4cccc[n+]41)([c]1ccccc1-c1cccc[n+]13)[n+]1cc(C#N)ccc1-2 [[Ir(ppy)2(MeTzPyCN)]^+]	–	680 nm	–	0.012	–	0.014	–	–	–	–	–	–	no emission was detected from stained cells	appreciable emission only in dichloromethane solution
N#Cc1ccc(-c2ccc3[n+](c2)[Ir]24([c]5ccccc5-c5cccc[n+]52)([c]2ccccc2-c2cccc[n+]24)[n]2nnnc2-3)cc1 [[Ir(ppy)2(TzPyPhCN)]]	2.68 ± 0.08	560 nm	114	0.023	880	0.149	0.967 10^6s^−1	1.693 10^5s^−1	286 (1.87) nm (10^4ε [M^−1cm^−1]) and 350 (0.86) nm (10^4ε [M^−1cm^−1]) and 421 (0.34) nm (10^4ε [M^−1cm^−1])	580	0.055	268 (3.95) nm (10^4ε [M^−1cm^−1]) and 290 (3.64) nm (10^4ε [M^−1cm^−1]) and 345 (0.58) nm (10^4ε [M^−1cm^−1]) and 423 (0.27) nm (10^4ε [M^−1cm^−1])	–	–
